Measurements from patent US20120276208A1, “ACUTE COGNITIVE AND MOOD EFFECTS OF PLANT POLYSACCHARIDES IN ADULT HUMAN SUBJECTS” (UNIVERSITY OF SOUTH AUSTRALIA, priority 2011, published 2012).

Tests used:
[1] = tested on: healthy middle-aged men and women; assay: Rey Auditory-Verbal Learning Test (RAVLT), learning and memory; format: in vivo, human; details: 4 g oral single dose; mean (SD)
Procedure: Procedure: Each participant attended the research facility on a single day for a period of 3.5 hours during which they completed 2 testing sessions, 1 baseline test and 1 post-treatment test. All testing took place between 08:00-12:00 and 13:00-18:00. On testing days, participants abstained from consuming any stimulants (i.e., tea, coffee, other caffeine containing products) for 2 hours before their visit. All volunteers were fasted for 2 hours before their visit. Each study day comprised of a practice module, a pre-treatment baseline testing session on the mood and cognitive measures, this was immediately followed by a pre-treatment blood glucose measurement, and administration of treatment. Participants were allocated, using a random number generator randomization code, to one of three treatment conditions: sucrose (icing sugar), placebo (rice flour) and plant saccharides (Ambrotose®Complex). Given the different densities of the three supplement conditions, each treatment was weighed and measured with scoop amounts to provide equated 4 g doses. The supplement was delivered to each participant on a tablespoon with 100 ml of water. Each participant was instructed by the inventors to carefully consume the powder, without breathing in or out over it, by putting it in their mouth and washing it down with the water provided within 5 minutes. Additional water was provided on request. Participants were then instructed to rest for 30 minutes to allow for absorption. Following the 30 minute absorption time, a finger-capillary blood glucose measurement was taken. The post treatment testing session then commenced with alternate forms of the RAVLT and Cognitive demand battery. Following completion of the testing session, a final blood glucose measurement was taken. […] Learning and Memory: The Rey Auditory-Verbal Learning Test (RAVLT) was used to assess immediate recall, delayed recall, learning and recognition memory. The examiner reads aloud 15 nouns (list A) over five trials and after each trial, participants are asked to recall, in any order, as many of the 15 words as possible. Scores for the 5 trials are summed to produce a measure of immediate recall, the difference between trial 5 and 1 is used as a measure of learning. After a sixth trial consisting of 15 different words (list B) participants are again required to recall the words that were presented in list A (trial 7), and then again after an interval of 60 minutes (trial 8). The scores from trials 7 and 8 are used to produce a measure of delayed recall, the difference between the words recalled in trials 8 and 7 is used as a measure of forgetting, the difference between trial 7 and trial 5 is used as a score of interference. After trial 8, participants are presented with a sheet of 50 words containing the words from lists A and B among 20 distracter words. Participants are asked to recognize the words from lists A and B and indicate the list they came from. Each word correctly identified is awarded one point producing a measure of recognition. Statistical Analysis: The primary outcomes were memory performance, mood and performance on the Cognitive Demand Battery (CDB) and the subjective ratings of mental fatigue. All data were analyzed using SPSS 17 statistical package as “change from pre dose baseline scores', using Analysis of Variance (ANOVA). To test for chance baseline differences which may have skewed change-from-baseline scores, prior to the primary statistical analysis, one-way ANOVA's with Bonferroni correction, were run all on all baseline demographics, general mood and well-being measures, and all pre-dose baseline measures to determine any potential covariates in outcomes.

[2] = tested on: healthy middle-aged men and women; assay: Cognitive Demand Battery: Serial Sevens subtraction task; format: in vivo, human; details: 4 g oral; at 20 min of battery; vs placebo
Procedure: Procedure: Each participant attended the research facility on a single day for a period of 3.5 hours during which they completed 2 testing sessions, 1 baseline test and 1 post-treatment test. All testing took place between 08:00-12:00 and 13:00-18:00. On testing days, participants abstained from consuming any stimulants (i.e., tea, coffee, other caffeine containing products) for 2 hours before their visit. All volunteers were fasted for 2 hours before their visit. Each study day comprised of a practice module, a pre-treatment baseline testing session on the mood and cognitive measures, this was immediately followed by a pre-treatment blood glucose measurement, and administration of treatment. Participants were allocated, using a random number generator randomization code, to one of three treatment conditions: sucrose (icing sugar), placebo (rice flour) and plant saccharides (Ambrotose®Complex). Given the different densities of the three supplement conditions, each treatment was weighed and measured with scoop amounts to provide equated 4 g doses. The supplement was delivered to each participant on a tablespoon with 100 ml of water. […] All data were analyzed using SPSS 17 statistical package as “change from pre dose baseline scores', using Analysis of Variance (ANOVA). […]

Structure (SMILES): OC[C@H]1O[C@@](CO)(O[C@H]2O[C@H](CO)[C@@H](O)[C@H](O)[C@H]2O)[C@@H](O)[C@@H]1O [Sucrose, sucrose]
- RAVLT Forgetting (trial 8-trial7), post-dose change from baseline score [1]: −1.69 (3.06)
- RAVLT Interference (trial 7-trial 5), post-dose change from baseline score [1]: −1.34 (2.18)
- RAVLT Learning (trial 5-trial1), post-dose change from baseline score [1]: 0.07 (2.78)
- RAVLT Recog A, post-dose change from baseline score [1]: −2.38 (2.46)
- RAVLT Recog B, post-dose change from baseline score [1]: −3.38 (3.55)
- RAVLT Sum Immediate Recall, post-dose change from baseline score [1]: −1.88 (5.83)
- RAVLT Sum Recognition, post-dose change from baseline score [1]: −5.76 (4.91)
- RAVLT Sum delayed recall, post-dose change from baseline score [1]: −4.76 (4.18)
- RAVLT Trial 1, post-dose change from baseline score [1]: −0.26 (2.23)
- RAVLT Trial 2, post-dose change from baseline score [1]: −0.57 (2.13)
- RAVLT Trial 3, post-dose change from baseline score [1]: −0.42 (1.83)
- RAVLT Trial4, post-dose change from baseline score [1]: −0.42 (1.72)
- RAVLT Trial 5, post-dose change from baseline score [1]: −0.19 (1.72)
- RAVLT Trial 6 (List B), post-dose change from baseline score [1]: −0.84 (2.16)
- RAVLT Trial 7, post-dose change from baseline score [1]: −1.53 (2.37)
- RAVLT Trial 8, post-dose change from baseline score [1]: −3.23 (2.80)
- Serial 7s number of correct answers, pairwise comparison [2]: making significantly more correct responses than the placebo group (p=0.04)
